According to patent US20230398130A1, “METHODS AND COMPOSITIONS FOR DIFFERENTIATING STEM CELLS” (Massachusetts Institute of Technology, priority 2020, published 2023):

What was measured:
[1] = tested on: ISC-enriched organoids; test: Primary screen, 384-well 2.5-D organoid differentiation (ENR+CD, 6 days, Target Selective Inhibitor Library, vs whole-plate median): ATP (CellTiter-Glo 3D, CTG); settings: for Dose.FC.CTG / SSMD.CTG: primary screen; for Dose.FC.CTG: FC vs plate median; for Z.CTG: standard z score of FC; for Dose.FC.CTG (log 2 fold change, ATP): vs plate median; for SSMD.CTG: strictly standardized mean difference
[2] = tested on: ISC-enriched organoids; test: Primary screen, 384-well 2.5-D organoid differentiation (ENR+CD, 6 days): basal lysozyme secretion (LYZ.NS); assay type: cell-based, murine; settings: for Dose.FC.LYZ.NS / SSMD.LYZ.NS: primary screen; for Dose.FC.LYZ.NS: FC vs plate median; for Z.LYZ.NS: standard z score of FC; for Dose.FC.LYZ.NS (log 2 fold change, basal lysozyme secretion): vs plate median; for SSMD.LYZ.NS: strictly standardized mean difference
From the text: (§1) High-throughput screening.

[3] = tested on: ISC-enriched organoids; test: Primary screen, 384-well 2.5-D organoid differentiation (ENR+CD, 6 days): carbachol-induced lysozyme secretion (LYZ.S); assay type: cell-based, murine; settings: for Dose.FC.LYZ.S / Z.LYZ.S / SSMD.LYZ.S: primary screen; for Dose.FC.LYZ.S: FC vs plate median; for Dose.FC.LYZ.S (log 2 fold change, carbachol-induced lysozyme secretion): vs plate median; for Z.LYZ.S: standard z score; for SSMD.LYZ.S: strictly standardized mean difference
From the text: as §1

[4] = 1st of the 4 dose lines of the treatment (dose not given)
[5] = 2nd of the 4 dose lines of the treatment (dose not given)
[6] = 3rd of the 4 dose lines of the treatment (dose not given)
[7] = 4th of the 4 dose lines of the treatment (dose not given)

Row | Structure (SMILES) | Dose.FC.CTG ([1]; Dose 0.08 uM) [log 2 fold change] | Z.CTG ([1]; Dose 0.08 uM) | Dose.FC.CTG ([1]; Dose 0.40 uM) [log 2 fold change] | Z.CTG ([1]; Dose 0.40 uM) | Dose.FC.CTG ([1]; Dose 2.00 uM) [log 2 fold change] | Z.CTG ([1]; Dose 2.00 uM) | Dose.FC.CTG ([1]; Dose 10.00 uM) [log 2 fold change] | Z.CTG ([1]; Dose 10.00 uM) | Dose.FC.LYZ.NS ([2]; Dose 0.08 uM) [log 2 fold change] | Z.LYZ.NS ([2]; Dose 0.08 uM) | Dose.FC.LYZ.NS ([2]; Dose 0.40 uM) [log 2 fold change] | Z.LYZ.NS ([2]; Dose 0.40 uM) | Dose.FC.LYZ.NS ([2]; Dose 2.00 uM) [log 2 fold change] | Z.LYZ.NS ([2]; Dose 2.00 uM) | Dose.FC.LYZ.NS ([2]; Dose 10.00 uM) [log 2 fold change] | Z.LYZ.NS ([2]; Dose 10.00 uM) | Dose.FC.LYZ.S ([3]; Dose 0.08 uM) [log 2 fold change] | Dose.FC.LYZ.S ([3]; Dose 0.40 uM) [log 2 fold change] | Dose.FC.LYZ.S ([3]; Dose 2.00 uM) [log 2 fold change] | Dose.FC.LYZ.S ([3]; Dose 10.00 uM) [log 2 fold change] | further results
1 | Cc1cnc(-c2cc(N3CCN(C(=O)CCS(C)(=O)=O)CC3)ncc2Cl)c(C)c1 [PF-5274857] | −0.101 | −0.242 | −0.040 | −0.096 | 0.055 | 0.131 | −0.076 | −0.183 | 0.078 | 0.683 | −0.029 | −0.256 | 0.011 | 0.094 | 0.074 | 0.642 | 0.187 | −0.034 | 0.042 | 0.076 | –
2 | COc1ccccc1S(=O)(=O)Nc1ccc2c(c1)CN(C)C(=O)N2 [PFI-1 (PF-6405761)] | 0.142 | 0.340 | 0.390 | 0.931 | 0.322 | 0.770 | −0.389 | −0.929 | 0.062 | 0.538 | 0.079 | 0.691 | −0.098 | −0.852 | −0.066 | −0.573 | 0.061 | 0.104 | −0.117 | −0.194 | –
3 | C[C@@H]1CCN(C(=O)CC#N)C[C@@H]1N(C)c1ncnc2[nH]ccc12 [Tofacitinib (CP-690550, Tasocitinib)] | – | – | – | – | – | – | – | – | – | – | – | – | – | – | – | – | – | – | – | – | Z.CTG (standard z score) ([1]; dose 0.08 uM): 0.312; Dose.FC.CTG (log 2 fold change, ATP) ([1]; dose 0.08 uM): 0.130; Z.CTG (standard z score) ([1]; dose 0.40 uM): 0.595; Dose.FC.CTG (log 2 fold change, ATP) ([1]; dose 0.40 uM): 0.249; Z.CTG (standard z score) ([1]; dose 2.00 uM): 0.278; Dose.FC.CTG (log 2 fold change, ATP) ([1]; dose 2.00 uM): 0.117; Z.CTG (standard z score) ([1]; dose 10.00 uM): 0.563; Dose.FC.CTG (log 2 fold change, ATP) ([1]; dose 10.00 uM): 0.236; Z.LYZ.NS (standard z score) ([2]; dose 0.08 uM): −0.146; Dose.FC.LYZ.NS (log 2 fold change, basal lysozyme secretion) ([2]; dose 0.08 uM): −0.017; Z.LYZ.NS (standard z score) ([2]; dose 0.40 uM): −0.132; Dose.FC.LYZ.NS (log 2 fold change, basal lysozyme secretion) ([2]; dose 0.40 uM): −0.015; Z.LYZ.NS (standard z score) ([2]; dose 2.00 uM): −0.061; Dose.FC.LYZ.NS (log 2 fold change, basal lysozyme secretion) ([2]; dose 2.00 uM): −0.007; Z.LYZ.NS (standard z score) ([2]; dose 10.00 uM): −0.036; Dose.FC.LYZ.NS (log 2 fold change, basal lysozyme secretion) ([2]; dose 10.00 uM): −0.004; Dose.FC.LYZ.S (log 2 fold change, carbachol-induced lysozyme secretion) ([3]; dose 0.08 uM): 0.022; Dose.FC.LYZ.S (log 2 fold change, carbachol-induced lysozyme secretion) ([3]; dose 0.40 uM): 0.010; Dose.FC.LYZ.S (log 2 fold change, carbachol-induced lysozyme secretion) ([3]; dose 2.00 uM): 0.025; Dose.FC.LYZ.S (log 2 fold change, carbachol-induced lysozyme secretion) ([3]; dose 10.00 uM): 0.010
4 | Nc1nc(CC(=O)Nc2ccc(CCNC[C@H](O)c3ccccc3)cc2)cs1 [Mirabegron] | – | 0.069 | – | −0.801 | – | 0.046 | – | −0.123 | – | – | – | – | – | – | – | – | – | – | – | – | SSMD.CTG [1, 4]: 0.101; SSMD.CTG [1, 5]: −0.380; SSMD.CTG [1, 6]: 0.068; SSMD.CTG [1, 7]: −0.150; SSMD.LYZ.NS [2, 4]: 1.039; SSMD.LYZ.NS [2, 5]: −0.280; SSMD.LYZ.NS [2, 6]: −0.346; SSMD.LYZ.NS [2, 7]: 0.113; Z.LYZ.S [3, 4]: 0.958; Z.LYZ.S [3, 5]: −0.103; Z.LYZ.S [3, 6]: −0.317; Z.LYZ.S [3, 7]: −0.065; SSMD.LYZ.S [3, 4]: 0.863; SSMD.LYZ.S [3, 5]: −0.090; SSMD.LYZ.S [3, 6]: −0.363; SSMD.LYZ.S [3, 7]: −0.064
